Experimental data reported in patent publication US20230015823A1, “METHODS OF ADMINISTERING VOXELOTOR” (Global Blood Therapeutics, Inc., priority 2019, published 2023).
Read-outs that look alike come from different tables or passages of the source.

Columns and labels:
[1] = Phase 1 study of a single oral dose of voxelotor in subjects with hepatic impairment: whole blood and plasma PK; format: in vivo, human; conditions: for AUC(0-t) / Cmax / Vd/F / half-life / Tmax / AUC(0-inf): human, po; for Cmax: read-out: Cmax, GM (converted); for Vd/F: read-out: Vz/F, GM (converted); for half-life: read-out: t1/2, mean (converted); for Tmax: read-out: tmax, median (converted); for AUC(0-inf): read-out: AUCinf, GM (converted)
Procedure: A Phase 1, open-label study was performed to characterize pharmacokinetics (PK) and safety of a single oral dose of voxelotor in subjects with hepatic impairment. The study was to assess the effects of mild, moderate, or severe hepatic impairment on the PK of a single oral dose of voxelotor, to evaluate the safety and tolerability of a single oral dose of voxelotor in subjects with mild, moderate, or severe hepatic impairment, as well as to establish potential dose adjustment guidance based upon the degree of hepatic insufficiency. […] This study was designed to assess the effects of mild, moderate, or severe hepatic impairment on the PK of a single oral dose of voxelotor. Routine safety assessments (AE monitoring, vital signs, physical examinations, clinical laboratory tests, and ECGs) were performed. Eligible subjects received a single oral dose of voxelotor 1500 mg (5×300-mg capsules) on Day 1 (for normal hepatic function, mild and moderate hepatic impairment). […] No food was allowed for at least 4 hours postdose. No water or any type of liquid was allowed for 1 hour before dosing through 1-hour postdose with the exception of water consumed for dosing. Adverse events and concomitant medication use were monitored throughout the study. Safety assessments, including physical examinations, vital signs assessments, 12-lead ECGs, and clinical laboratory tests, were performed. Whole blood and plasma concentrations of voxelotor were determined using validated assays. […] Louis, Mo.) and actual sampling times. The following PK parameters were determined. To assess the effect of hepatic impairment on the PK of voxelotor, a linear mixed-effect model was fitted to the log-transformed values of whole blood and plasma Cmax, AUCt, and AUCinf. The model included hepatic impairment group as a fixed effect and age and weight as covariates. Point estimates and 90% CIs for hepatic function group differences (mild, moderate, and severe hepatically-impaired subjects [test] versus the normal hepatic function subjects [control]) on the log scale were exponentiated to obtain estimates for GM ratios on the original scale. Voxelotor whole blood and plasma concentrations were measured using a validated liquid chromatography-mass spectrometry method. The lower limit of assay quantitation for voxelotor was 10.0 ng/mL for whole blood and 5.00 ng/mL in plasma.

MATE1 = MATE1 (Homo sapiens, UniProt Q96FL8); assay: In vitro transporter studies: MATE1; format: in vitro ADME
[2] = whole blood, 600 mg, whole blood, severe hepatic impairment, 600 mg single oral dose
[3] = whole blood, 1500 mg, whole blood, mild hepatic impairment, 1500 mg single oral dose
[4] = whole blood, 1500 mg, whole blood, moderate hepatic impairment, 1500 mg single oral dose
[5] = whole blood, 1500 mg, whole blood, normal hepatic function, 1500 mg single oral dose
[6] = plasma, Mild (Test) vs Normal (Ref)
[7] = plasma, Moderate (Test) vs Normal (Ref)
[8] = plasma, Severe (Test, adjusted for dose) vs Normal (Ref)
[9] = severe hepatic impairment, Cmax adjusted for dose
[10] = whole blood, Mild (Test) vs Normal (Ref)
[11] = whole blood, Moderate (Test) vs Normal (Ref)
[12] = whole blood, Severe (Test, adjusted for dose) vs Normal (Ref)

Chain of MATE1 (Q96FL8 whole entry): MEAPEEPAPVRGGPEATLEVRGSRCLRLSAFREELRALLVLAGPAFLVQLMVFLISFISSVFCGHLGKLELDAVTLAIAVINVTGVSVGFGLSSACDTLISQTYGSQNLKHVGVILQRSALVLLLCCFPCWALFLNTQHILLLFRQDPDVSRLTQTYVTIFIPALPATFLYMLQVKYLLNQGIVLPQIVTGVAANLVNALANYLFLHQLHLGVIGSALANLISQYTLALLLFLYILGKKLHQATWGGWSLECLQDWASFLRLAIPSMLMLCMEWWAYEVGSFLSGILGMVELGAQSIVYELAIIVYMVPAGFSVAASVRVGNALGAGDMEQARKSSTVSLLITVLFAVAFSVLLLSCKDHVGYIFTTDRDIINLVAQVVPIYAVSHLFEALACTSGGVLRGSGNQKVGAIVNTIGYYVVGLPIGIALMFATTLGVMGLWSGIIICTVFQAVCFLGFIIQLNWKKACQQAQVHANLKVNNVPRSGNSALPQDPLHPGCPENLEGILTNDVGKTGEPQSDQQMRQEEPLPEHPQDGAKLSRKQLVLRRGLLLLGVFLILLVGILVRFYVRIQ

Molecule CC(C)n1nccc1-c1ncccc1COc1cccc(O)c1C=O [voxelotor, 2-hydroxy-6-((2-(1-isopropyl-1H-pyrazol-5-yl)pyridin-3-yl)methoxy)benzaldehyde] has an AUC(0-t) ([1]; whole blood, 600 mg, whole blood, severe hepatic impairment, 600 mg single oral dose, adjusted for dose to 1500 mg, read-out: AUCt, GM (converted)) of 13300 µg·h/mL, a Cmax ([1]; whole blood, 600 mg, whole blood, severe hepatic impairment, 600 mg single oral dose, adjusted for dose to 1500 mg) of 86.6 µg/mL and a Vd/F [1, 2] of 17.6 L. For the same molecule, the half-life [1, 2] was 111 h, the Tmax [1, 2] was 24 h and the AUC(0-t) ([1]; whole blood, 1500 mg, whole blood, mild hepatic impairment, 1500 mg single oral dose, read-out: AUC0-96, GM (converted)) was 5160 µg·h/mL. For the same molecule, the AUC(0-inf) [1, 3] was 8230 µg·h/mL, the AUC(0-t) ([1]; whole blood, 1500 mg, whole blood, mild hepatic impairment, 1500 mg single oral dose, read-out: AUCt, GM (converted)) was 8190 µg·h/mL and the Cmax [1, 3] was 73.6 µg/mL. The Vd/F [1, 3] was 15.8 L, the half-life [1, 3] was 60.1 h and the Tmax [1, 3] was 24 h. It also gave an AUC(0-t) ([1]; whole blood, 1500 mg, whole blood, moderate hepatic impairment, 1500 mg single oral dose, read-out: AUC0-96, GM (converted)) of 4660 µg·h/mL, an AUC(0-inf) [1, 4] of 8360 µg·h/mL and an AUC(0-t) ([1]; whole blood, 1500 mg, whole blood, moderate hepatic impairment, 1500 mg single oral dose, read-out: AUCt, GM (converted)) of 8320 µg·h/mL. It also gave a Cmax [1, 4] of 63.8 µg/mL, a Vd/F [1, 4] of 20.6 L and a half-life [1, 4] of 79.5 h. It also gave a Tmax [1, 4] of 24 h, an AUC(0-t) ([1]; whole blood, 1500 mg, whole blood, normal hepatic function, 1500 mg single oral dose, read-out: AUC0-96, GM (converted)) of 4270 µg·h/mL and an AUC(0-inf) [1, 5] of 6980 µg·h/mL. For the same molecule, the AUC(0-t) ([1]; whole blood, 1500 mg, whole blood, normal hepatic function, 1500 mg single oral dose, read-out: AUCt, GM (converted)) was 6950 µg·h/mL, the Cmax [1, 5] was 60.9 µg/mL and the Vd/F [1, 5] was 19.6 L. The Tmax [1, 5] was 24 h, the “plasma Cmax, higher than normal hepatic function” value (“plasma Cmax” for short) ([1]; mild hepatic impairment) was 18% and the “whole blood Cmax, higher than normal hepatic function” value (from here on “whole blood Cmax”) ([1]; mild hepatic impairment) was 19%. For the same molecule, the “AUC in whole blood higher compared to normal hepatic function” value (shortened to “AUC … compared to normal hepatic function”) ([1]; mild hepatic impairment (Child Pugh A)) was 14%, the “plasma Cmax” value ([1]; moderate hepatic impairment) was 51% and the “whole blood Cmax” value ([1]; moderate hepatic impairment) was 6%. For the same molecule, the “AUC … compared to normal hepatic function” value ([1]; moderate hepatic impairment (Child Pugh B)) was 15%, the “AUCinf, Ratio of Geometric LS Mean (Test to Reference)” value (shortened to “AUCinf, Ratio of Geometric LS Mean”) [1, 6] was 1.093 and the “AUCt, Ratio of Geometric LS Mean (Test to Reference)” value (“AUCt, Ratio of Geometric LS Mean” for short) [1, 6] was 1.089. For the same molecule, the “Cmax, Ratio of Geometric LS Mean (Test to Reference)” value (from here on “Cmax, Ratio of Geometric LS Mean”) [1, 6] was 1.177, the “AUCinf, Ratio of Geometric LS Mean” value [1, 7] was 1.180 and the “AUCt, Ratio of Geometric LS Mean” value [1, 7] was 1.207. For the same molecule, the “Cmax, Ratio of Geometric LS Mean” value [1, 7] was 1.510, the “AUCinf, Ratio of Geometric LS Mean” value [1, 8] was 1.932 and the “AUCt, Ratio of Geometric LS Mean” value [1, 8] was 1.907. The “Cmax, Ratio of Geometric LS Mean” value [1, 8] was 1.445, the “CL/F, GM” value ([1]; plasma, mild hepatic impairment, 1500 mg single oral dose) was 76.69 L/h and the “CL/F, GM” value ([1]; plasma, moderate hepatic impairment, 1500 mg single oral dose) was 56.14 L/h. The “CL/F, GM” value ([1]; plasma, normal hepatic function, 1500 mg single oral dose) was 77.50 L/h, the “CL/F, GM” value ([1]; plasma, severe hepatic impairment, 600 mg single oral dose) was 73.81 L/h and the “AUC … compared to normal hepatic function” value ([1]; severe hepatic impairment (Child Pugh C)) was 90%. For the same molecule, the “plasma Cmax” value [1, 9] was 45%, the “whole blood Cmax” value [1, 9] was 39% and the “AUCinf, Ratio of Geometric LS Mean” value [1, 10] was 1.141. For the same molecule, the “AUCt, Ratio of Geometric LS Mean” value [1, 10] was 1.140, the “Cmax, Ratio of Geometric LS Mean” value [1, 10] was 1.187 and the “AUCinf, Ratio of Geometric LS Mean” value [1, 11] was 1.151. The “AUCt, Ratio of Geometric LS Mean” value [1, 11] was 1.149, the “Cmax, Ratio of Geometric LS Mean” value [1, 11] was 1.056 and the “AUCinf, Ratio of Geometric LS Mean” value [1, 12] was 1.902. The “AUCt, Ratio of Geometric LS Mean” value [1, 12] was 1.867, the “Cmax, Ratio of Geometric LS Mean” value [1, 12] was 1.391 and the “CL/F, GM” value ([1]; whole blood, mild hepatic impairment, 1500 mg single oral dose) was 70.182 L/h. The “CL/F, GM” value ([1]; whole blood, moderate hepatic impairment, 1500 mg single oral dose) was 60.179 L/h, the “CL/F, GM” value ([1]; whole blood, normal hepatic function, 1500 mg single oral dose) was 70.215 L/h and the “CL/F, GM” value ([1]; whole blood, severe hepatic impairment, 600 mg single oral dose) was 70.110 L/h. The “inhibition of MATE1” value (MATE1) was “not an inhibitor”.
